Measurements as given in US20110250135A1, “Piperazine Derivatives for Binding and Imaging Amyloid Plaques and Their Use” (Bayer Schering Pharma Aktiengesellschaft, priority 2008, published 2011).

Columns and labels:
[1] = Biodistribution: organ distribution of F-18 signal in mice; assay type: in vivo, male NMRI mice; conditions: for Organ distribution of F-18 signal, intestine: intestine (with content); for Organ distribution of F-18 signal, stomach: stomach (without content)
Experimental: Biodistribution and excretion studies were performed in male NMRI mice (body weight app. 30g; 3 animals per time point). The animals were kept under normal laboratory conditions at a temperature of 22±2° C. and a dark/light rhythm of 12 hours. Food and water were provided ad libitium. During an acclimation period of at least 3 days before the beginning of the study animals were clinically examined to ascertain the absence of abnormal clinical signs. At 2, 5, 30, 60, 240 min post intravenous injection via the tail vein of ca. 150 kBq in 100 μl of the test compound, urine and feces were quantitatively collected. At the same time points, animals were sacrificed by decapitation and under isoflurane anaesthesia and the following organs and tissues were removed for the determination of radioactivity using a gamma-counter: spleen, liver, kidney, lung, femur, heart, brain, fat, thyroid, muscle, skin, blood, tail, stomach (without content), testicle, intestine (with content), pancreas, adrenals, and the remaining body. For analysis the decay corrected percentage of the injected dose per tissue weight (% ID/g±standard deviation) was calculated.

[2] = target: T1, Aβ plaques (Homo sapiens, UniProt P05067); test: Autoradiographical analysis of binding to cryosections from cortex of AD patients and controls; conditions: F-18 labeled compound; Alzheimer's disease patients (AD) vs controls without Aβ plaques
T1 construct: controls without Aβ plaques; from tissue; host or cells: frontal lobe / cortex sections (frozen and paraffin) from AD patients, FTD patients and age-matched controls
Excerpt: Fresh frozen as well as paraffin embedded sections of the frontal lobe from Alzheimer's dementia patients, frontotemporal dementia patients and age matched controls were used for the study. Frozen sections, sliced at 18 μm thickness on a cryostate (Leica, Germany) and paraffin sections, sliced on a sliding microtom (Leica) at a thickness of 6 μm, were mounted onto glass slides (Superfrost Plus, Fa.Menzel, Braunschweig Germany). Frozen sections were allowed to adhere to the slides for several nights at −20° C. The paraffin sections were deparaffinized using routine histological methods. For binding studies sections were incubated with the F-18 labeled test compound at 10 Bq/μl diluted in 25 mM Hepes buffer, pH 7.4, 0.1% (BSA) (200-300 μl/slide) for 1.5 hour at room temperature in a humidified chamber. For blocking experiments a 1000-fold access of the unlabeled test substance was added to the incubation mixture. After hybridization, sections were washed four times with Hepes buffer, 0.1% BSA (or alternatively two times with 40% ethanol) and finally dipped two times into dest. water for 10 sec. The air-dried sections were exposed to imaging plates and signals were detected by a phosphoimager device (Fuji BAS5000).

T1 sequence (P05067 672-713 limits assumed): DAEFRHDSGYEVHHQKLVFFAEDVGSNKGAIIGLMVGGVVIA

In the case of O=C(NCC(=O)N1CCN(c2ccc(OCc3ccccc3)cc2)CC1)c1cccc(OCC[18F])c1 [Example 3g, N-{2-[4-(4-Benzyloxy-phenyl)-piperazin-1-yl]-2-oxo-ethyl}-3-(2-[F-18]fluoro-ethoxy)benzamide], the “Organ distribution of F-18 signal, adrenals” value (shortened to “Organ distribution … adrenals”) ([1]; 2 min post i.v. injection) is reported as 7.57 % ID/g, the “Organ distribution … adrenals” value ([1]; 5 min post i.v. injection) is reported as 10.67 % ID/g and the “Organ distribution … adrenals” value ([1]; 30 min post i.v. injection) is reported as 4.49 % ID/g. For the same compound, the “Organ distribution … adrenals” value ([1]; 60 min post i.v. injection) was 1.77 % ID/g, the “Organ distribution … adrenals” value ([1]; 240 min post i.v. injection) was 1.03 % ID/g and the “Organ distribution of F-18 signal, blood” value ([1]; 2 min post i.v. injection) was 1.72 % ID/g. For the same compound, the “Organ distribution of F-18 signal, blood” value ([1]; 5 min post i.v. injection) was 2.12 % ID/g, the “Organ distribution of F-18 signal, blood” value ([1]; 30 min post i.v. injection) was 1.85 % ID/g and the “Organ distribution of F-18 signal, blood” value ([1]; 60 min post i.v. injection) was 1.32 % ID/g. The “Organ distribution of F-18 signal, blood” value ([1]; 240 min post i.v. injection) was 0.57 % ID/g, the “Organ distribution of F-18 signal, brain” value ([1]; 2 min post i.v. injection) was 5.15 % ID/g and the “Organ distribution of F-18 signal, brain” value ([1]; 5 min post i.v. injection) was 4.14 % ID/g. For the same compound, the “Organ distribution of F-18 signal, brain” value ([1]; 30 min post i.v. injection) was 1.66 % ID/g, the “Organ distribution of F-18 signal, brain” value ([1]; 60 min post i.v. injection) was 0.93 % ID/g and the “Organ distribution of F-18 signal, brain” value ([1]; 240 min post i.v. injection) was 0.42 % ID/g. For the same compound, the “Organ distribution of F-18 signal, fat” value ([1]; 2 min post i.v. injection) was 1.97 % ID/g, the “Organ distribution of F-18 signal, fat” value ([1]; 5 min post i.v. injection) was 2.44 % ID/g and the “Organ distribution of F-18 signal, fat” value ([1]; 30 min post i.v. injection) was 4.26 % ID/g. For the same compound, the “Organ distribution of F-18 signal, fat” value ([1]; 60 min post i.v. injection) was 2.38 % ID/g, the “Organ distribution of F-18 signal, fat” value ([1]; 240 min post i.v. injection) was 0.34 % ID/g and the “Organ distribution of F-18 signal, femur” value ([1]; 2 min post i.v. injection) was 1.95 % ID/g. For the same compound, the “Organ distribution of F-18 signal, femur” value ([1]; 5 min post i.v. injection) was 1.79 % ID/g, the “Organ distribution of F-18 signal, femur” value ([1]; 30 min post i.v. injection) was 1.05 % ID/g and the “Organ distribution of F-18 signal, femur” value ([1]; 60 min post i.v. injection) was 1.11 % ID/g. The “Organ distribution of F-18 signal, femur” value ([1]; 240 min post i.v. injection) was 3.06 % ID/g, the “Organ distribution of F-18 signal, heart” value ([1]; 2 min post i.v. injection) was 15.57 % ID/g and the “Organ distribution of F-18 signal, heart” value ([1]; 5 min post i.v. injection) was 8.25 % ID/g. The “Organ distribution of F-18 signal, heart” value ([1]; 30 min post i.v. injection) was 3.47 % ID/g, the “Organ distribution of F-18 signal, heart” value ([1]; 60 min post i.v. injection) was 2.07 % ID/g and the “Organ distribution of F-18 signal, heart” value ([1]; 240 min post i.v. injection) was 0.61 % ID/g. For the same compound, the “Organ distribution of F-18 signal, intestine” value (“Organ distribution … intestine” for short) ([1]; 2 min post i.v. injection) was 1.93 % ID/g, the “Organ distribution … intestine” value ([1]; 5 min post i.v. injection) was 1.87 % ID/g and the “Organ distribution … intestine” value ([1]; 30 min post i.v. injection) was 4.58 % ID/g. For the same compound, the “Organ distribution … intestine” value ([1]; 60 min post i.v. injection) was 6.47 % ID/g, the “Organ distribution … intestine” value ([1]; 240 min post i.v. injection) was 8.50 % ID/g and the “Organ distribution of F-18 signal, kidney” value (“Organ distribution … kidney” for short) ([1]; 2 min post i.v. injection) was 15.52 % ID/g. The “Organ distribution … kidney” value ([1]; 5 min post i.v. injection) was 14.38 % ID/g, the “Organ distribution … kidney” value ([1]; 30 min post i.v. injection) was 11.43 % ID/g and the “Organ distribution … kidney” value ([1]; 60 min post i.v. injection) was 7.70 % ID/g. The “Organ distribution … kidney” value ([1]; 240 min post i.v. injection) was 1.05 % ID/g, the “Organ distribution of F-18 signal, liver” value ([1]; 2 min post i.v. injection) was 6.35 % ID/g and the “Organ distribution of F-18 signal, liver” value ([1]; 5 min post i.v. injection) was 13.36 % ID/g. For the same compound, the “Organ distribution of F-18 signal, liver” value ([1]; 30 min post i.v. injection) was 8.75 % ID/g, the “Organ distribution of F-18 signal, liver” value ([1]; 60 min post i.v. injection) was 5.04 % ID/g and the “Organ distribution of F-18 signal, liver” value ([1]; 240 min post i.v. injection) was 1.44 % ID/g. The “Organ distribution of F-18 signal, lung” value ([1]; 2 min post i.v. injection) was 5.58 % ID/g, the “Organ distribution of F-18 signal, lung” value ([1]; 5 min post i.v. injection) was 4.05 % ID/g and the “Organ distribution of F-18 signal, lung” value ([1]; 30 min post i.v. injection) was 2.55 % ID/g. The “Organ distribution of F-18 signal, lung” value ([1]; 60 min post i.v. injection) was 1.66 % ID/g, the “Organ distribution of F-18 signal, lung” value ([1]; 240 min post i.v. injection) was 0.59 % ID/g and the “Organ distribution of F-18 signal, muscle” value (from here on “Organ distribution … muscle”) ([1]; 2 min post i.v. injection) was 3.95 % ID/g. For the same compound, the “Organ distribution … muscle” value ([1]; 5 min post i.v. injection) was 3.17 % ID/g, the “Organ distribution … muscle” value ([1]; 30 min post i.v. injection) was 1.95 % ID/g and the “Organ distribution … muscle” value ([1]; 60 min post i.v. injection) was 1.31 % ID/g. The “Organ distribution … muscle” value ([1]; 240 min post i.v. injection) was 0.30 % ID/g, the “Organ distribution of F-18 signal, pancreas” value (from here on “Organ distribution … pancreas”) ([1]; 2 min post i.v. injection) was 4.96 % ID/g and the “Organ distribution … pancreas” value ([1]; 5 min post i.v. injection) was 4.26 % ID/g. The “Organ distribution … pancreas” value ([1]; 30 min post i.v. injection) was 2.21 % ID/g, the “Organ distribution … pancreas” value ([1]; 60 min post i.v. injection) was 1.22 % ID/g and the “Organ distribution … pancreas” value ([1]; 240 min post i.v. injection) was 0.32 % ID/g. The “Organ distribution of F-18 signal, skin” value ([1]; 2 min post i.v. injection) was 1.72 % ID/g, the “Organ distribution of F-18 signal, skin” value ([1]; 5 min post i.v. injection) was 2.15 % ID/g and the “Organ distribution of F-18 signal, skin” value ([1]; 30 min post i.v. injection) was 1.93 % ID/g. The “Organ distribution of F-18 signal, skin” value ([1]; 60 min post i.v. injection) was 1.29 % ID/g, the “Organ distribution of F-18 signal, skin” value ([1]; 240 min post i.v. injection) was 0.42 % ID/g and the “Organ distribution of F-18 signal, spleen” value (“Organ distribution … spleen” below) ([1]; 2 min post i.v. injection) was 1.73 % ID/g. The “Organ distribution … spleen” value ([1]; 5 min post i.v. injection) was 2.22 % ID/g, the “Organ distribution … spleen” value ([1]; 30 min post i.v. injection) was 1.28 % ID/g and the “Organ distribution … spleen” value ([1]; 60 min post i.v. injection) was 0.86 % ID/g. For the same compound, the “Organ distribution … spleen” value ([1]; 240 min post i.v. injection) was 0.36 % ID/g, the “Organ distribution of F-18 signal, stomach” value (“Organ distribution … stomach” for short) ([1]; 2 min post i.v. injection) was 4.78 % ID/g and the “Organ distribution … stomach” value ([1]; 5 min post i.v. injection) was 4.49 % ID/g. The “Organ distribution … stomach” value ([1]; 30 min post i.v. injection) was 2.20 % ID/g, the “Organ distribution … stomach” value ([1]; 60 min post i.v. injection) was 1.53 % ID/g and the “Organ distribution … stomach” value ([1]; 240 min post i.v. injection) was 0.82 % ID/g. For the same compound, the “Organ distribution of F-18 signal, tail” value ([1]; 2 min post i.v. injection) was 8.94 % ID/g, the “Organ distribution of F-18 signal, tail” value ([1]; 5 min post i.v. injection) was 9.06 % ID/g and the “Organ distribution of F-18 signal, tail” value ([1]; 30 min post i.v. injection) was 4.73 % ID/g. The “Organ distribution of F-18 signal, tail” value ([1]; 60 min post i.v. injection) was 2.57 % ID/g, the “Organ distribution of F-18 signal, tail” value ([1]; 240 min post i.v. injection) was 1.98 % ID/g and the “Organ distribution of F-18 signal, testicle” value (shortened to “Organ distribution … testicle”) ([1]; 2 min post i.v. injection) was 1.19 % ID/g. For the same compound, the “Organ distribution … testicle” value ([1]; 5 min post i.v. injection) was 1.58 % ID/g, the “Organ distribution … testicle” value ([1]; 30 min post i.v. injection) was 1.44 % ID/g and the “Organ distribution … testicle” value ([1]; 60 min post i.v. injection) was 1.84 % ID/g. For the same compound, the “Organ distribution … testicle” value ([1]; 240 min post i.v. injection) was 0.38 % ID/g, the “Organ distribution of F-18 signal, thyroid” value (“Organ distribution … thyroid” for short) ([1]; 2 min post i.v. injection) was 3.87 % ID/g and the “Organ distribution … thyroid” value ([1]; 5 min post i.v. injection) was 3.67 % ID/g. For the same compound, the “Organ distribution … thyroid” value ([1]; 30 min post i.v. injection) was 1.78 % ID/g, the “Organ distribution … thyroid” value ([1]; 60 min post i.v. injection) was 1.04 % ID/g and the “Organ distribution … thyroid” value ([1]; 240 min post i.v. injection) was 0.56 % ID/g. For the same compound, the “autoradiographical analysis of binding to cryosections from cortex” value [2] was “Specific binding in plaque-rich regions of AD samples”.
